Data from PMC7503370, “Cellular Signaling and Anti-Apoptotic Effects of Prolactin-Releasing Peptide and Its Analog on SH-SY5Y Cells” (International Journal of Molecular Sciences, 2020).

Tested on: SH-SY5Y cells
Assay: Pretreatment with peptides before MG stress, MTT cell viability
Type: cell-based, human
Conditions: 4 h pretreatment 1 × 10^−7 M, then 1.2 mM MG 16 h, n = 3, octuplicates
Protocol: Figure 5 PrRP31 and its analog increased cell viability during the MG-induced stress. Pre-treatment for 4 h with PrRP31 and palm^11-PrRP31 at a concentration of: (a) 1 × 10^−5 M; or (b) 1 × 10^−7 M, followed by exposure to 1.2 mM MG for 16 h in SH-SY5Y cells. Pre-treatment for 4 h with PrRP31 and palm^11-PrRP31 at a concentration of: (c) 1 × 10^−5 M; (d) 1 × 10^−7 M in SH-SY5Y cells; or (e) 1 × 10^−5 M in rat primary neuronal culture, followed by exposure to 0.6 mM MG for 16 h in SH-SY5Y cells. MG toxicity was measured with MTT assay. Data are presented as the means ± SEM as a percentage of control cells treated with vehicle analyzed by a Student’s t-test vs. 0.6 mM MG # p < 0.5, ## p < 0.01, ### p < 0.001, #### p < 0.0001 (n = 3, each sample in octuplicates). Control vs. 0.6 mM MG analyzed by a Student´s t-test, * p < 0.5, ** p < 0.01.
The MTT test was used to measure cell viability. The MTT reagent was dissolved in RPMI-1640 without phenol red. Cells were incubated for 2 h with a 10% solution of MTT at 37 °C. Living cells converted soluble MTT to insoluble formazan, which was subsequently dissolved in DMSO. The absorbance was measured at a wavelength of 560 nm.
For this assay, cells were cultured in 96-well plates at a density of 40,000 cells per well. The growth medium was exchanged for serum-free DMEM 16 h before the experiment. […]

## CC[C@H](C)[C@H](NC(=O)CNC(=O)[C@H](CCCNC(=N)N)NC(=O)[C@H](CO)NC(=O)[C@H](C)NC(=O)[C@H](Cc1ccc(O)cc1)NC(=O)[C@H](Cc1c[nH]c2ccccc12)NC(=O)[C@H](C)NC(=O)[C@@H]1CCCN1C(=O)[C@H](CC(N)=O)NC(=O)[C@@H](NC(=O)[C@H](CC(=O)O)NC(=O)[C@@H]1CCCN1C(=O)[C@@H](NC(=O)[C@H](CCCNC(=N)N)NC(=O)[C@@H](NC(=O)[C@H](CCC(=O)O)NC(=O)[C@H](CCSC)NC(=O)[C@H](CO)NC(=O)[C@H](Cc1c[nH]cn1)NC(=O)[C@H](CCCNC(=N)N)NC(=O)[C@H](Cc1c[nH]cn1)NC(=O)[C@@H](NC(=O)[C@H](CCCNC(=N)N)NC(=O)[C@@H](N)CO)[C@@H](C)O)[C@@H](C)CC)[C@@H](C)O)[C@@H](C)CC)C(=O)N[C@@H](CCCNC(=N)N)C(=O)N1CCC[C@H]1C(=O)N[C@H](C(=O)NCC(=O)N[C@@H](CCCNC(=N)N)C(=O)N[C@@H](Cc1ccccc1)C(N)=O)C(C)C [PrRP31]
  cell viability (% of control cells): not
